Laboratory results taken from patent publication US8821850B2, “Protein-polymer-drug conjugates” (Mersana Therapeutics, Inc., priority 2011, dated 2014).
Where two headings read alike, the source gives them in different places. Square brackets hold non-standard residues; d marks the D form. Peptide text beside a SMILES is read from it. * marks the point of attachment. Dolaproine = CO[C@@H]([C@@H]1CCCN1)[C@@H](C)C(=O)O; Dil = CC[C@H](C)[C@H](NC)[C@@H](CC(=O)O)OC; NMe2Val = CC(C)[C@@H](C(=O)*)N(C)C; X1 = C[C@H](N)C(=O)OCCCN*

What was measured:
Assay type in all cases: cell-based
[1] = system: HER2 expressing cells BT474; assay: Cell viability assay (Cell Titer-Glo), BT474; details: read-out: BT474 IC50
Procedure: (§1) PBRM-drug polymer conjugates were evaluated for their tumor viability using Cell Titer-Glo (Promega Corp). Cells were plated in black walled 96-well plate and allowed to adhere overnight at 37° C. in a humidified atmosphere of 5% CO2. HER2 expressing cells SKBR3, BT474, NCI-N87 and cells expressing low levels of HER2-MCF7 were plated at a density of 5,000 cells per well. The next day the medium was replaced with 50 μL fresh medium and 50 μL of 2× stocks of PBRM-drug polymer conjugate, drug polymer conjugate or drug were added to appropriate wells, mixed and incubated for 72 h. Cell Titer-Glo reagent was added to the wells at room temperature and the luminescent signal was measured after 10 min using a SpectraMax M5 plate reader (Molecular Devices). Dose response curves were generated using SoftMax Pro software. IC50 values were determined from four-parameter curve fitting.

[2] = system: HER2 expressing cells SKBR3; assay: Cell viability assay (Cell Titer-Glo), SKBR3
Procedure: as §1

[3] = system: cells expressing low levels of HER2-MCF7; assay: Cell viability assay (Cell Titer-Glo), MCF7
Procedure: as §1

[4] = system: HER2 expressing cells NCI-N87; assay: Cell viability assay (Cell Titer-Glo), NCI-N87; details: read-out: N87 IC50
Procedure: as §1

[5] = Table XIII, 72 h, conjugates with high drug loading
[6] = Table XIII, 72 h, conjugates with high drug loading, read-out: SKBR3 IC50
[7] = Table XIII, 72 h, conjugates with high drug loading, read-out: MCF7 IC50
[8] = Table XII, 72 h, conjugates with PBRM MW<80 kDa, read-out: SKBR3 IC50
[9] = Table XII, 72 h, conjugates with PBRM MW<80 kDa, read-out: MCF7 IC50
[10] = Homo sapiens, MCF7, 72 h, read-out: MCF7 IC50, Table II

Molecule | IC50 [1, 5] | IC50 [2, 6] | IC50 [3, 7] | IC50 [4, 5] | IC50 ([1]; Homo sapiens, BT-474, 72 h) | also measured
47 kDa PHF-BA-(AF HPA-L-Alanine)-SS-Rituximab [Example 94, Conjugate D] | 1.1 nM | 0.26 nM | 8.8 nM | 10.9 nM | – | –
156 kDa PHF-BA (AF HPA-L-Alanine)-SS-(Trastuzumab-Fab′) [Example 96 Conjugate B] | – | – | – | – | – | IC50 [2, 8]: 1 nM; IC50 [3, 9]: > 100 nM
22 kDa PHF-BA-(AF HPA)-SS-Rituximab [Example 94, Conjugate C] | 2.82 nM | – | 4.17 nM | 5.84 nM | – | –
CCC1(O)C[C@H]2C[N@](CCc3c([nH]c4ccccc34)[C@@](C(=O)OC)(c3cc4c(cc3OC)N(C)C3C45CCN4CC=C[C@](CC)(C45)[C@@H](O)[C@]3(O)C(=O)NC[C@H](C)O)C2)C1 (stereo partly drawn) [Example 22, (S)-2HPV] | – | – | – | – | 0.41 nM | IC50 [3, 10]: 1.83 nM
22 kDa PHF-BA-(AF HPA-L-Alanine)-SS-Trastuzumab [Example 94, Conjugate A] | 0.05 nM | 0.008 nM | 9.5 nM | 0.12 nM | – | –
CC[C@H](C)[C@@H]([C@@H](CC(=O)N1CCC[C@H]1[C@H](OC)[C@@H](C)C(=O)N[C@@H](Cc1ccccc1)C(=O)NCCCOC(=O)[C@H](C)N)OC)N(C)C(=O)[C@@H](NC(=O)[C@H](C(C)C)N(C)C)C(C)C [Example 50, AF HPA-L-Alanine] (NMe2Val-V[Dil][Dolaproine]F-X1) | – | – | – | – | 0.85 nM | IC50 ([2]; Homo sapiens, SK-BR-3, 72 h, read-out: SKBR3 IC50, Table XIII, conjugates with high drug loading): 0.32 nM; IC50 ([3]; Homo sapiens, MCF7, 72 h, read-out: MCF7 IC50, Table XIII, conjugates with high drug loading): 8.5 nM; IC50 ([3]; read-out: MCF7 IC50, Table XIII, 72 h, conjugates with high drug loading): 8.2 nM; IC50 ([4]; Homo sapiens, NCI-N87, 72 h): 1.6 nM
47 kDa PHF-BA-(AF HPA-L-Alanine)-SS-Trastuzumab [Example 94, Conjugate B] | < 0.05 nM | < 0.05 nM | 7.4 nM | ~0.3 nM | – | –
CCC1(O)C[C@H]2C[N@](CCc3c([nH]c4ccccc34)[C@@](C(=O)OC)(c3cc4c(cc3OC)N(C)C3C45CCN4CC=C[C@](CC)(C45)[C@@H](O)[C@]3(O)C(=O)NC[C@@H](C)O)C2)C1 (stereo partly drawn) [Example 23, (R)-2HPV] | – | – | – | – | 0.39 nM | IC50 ([2]; Homo sapiens, SK-BR-3, 72 h, read-out: SKBR3 IC50, Table II): 0.71 nM; IC50 [3, 10]: 1.71 nM
105 kDa PHF-BA (AF HPA-L-Alanine)-SS-(Trastuzumab-Fab′) [Example 96 Conjugate A] | – | – | – | – | – | IC50 [2, 8]: 0.6 nM; IC50 [3, 9]: > 100 nM
